Data set [1] in a line: In vitro metabolic stability in human plasma. In kind it is in vitro ADME. The following applies: 37 °C, radio-HPLC. Here is the method:
High proteolytic stability is an important aspect of the tumor-targeting peptides to deliver the highest possible tumor-targeting effect. The extent of proteolytic degradation of the ^177Lu-AngII peptide was determined by incubating the radiolabeled peptide with human plasma at 37° C for up to 5 h. […] A limited release of free ^177Lu amount (up to 10%) indicates the high in vitro plasma stability of the radiolabeled peptide, with low enzymatic breakdown by plasma proteases (Figure 2).
Human plasma was obtained from the institutional blood bank from volunteers’ blood donors (with consent). The metabolic stability of ^177Lu-DOTA-AngII peptide was determined following a method essentially as described previously. In summary, the radiolabeled peptide (50 μL) was mixed with plasma (400 μL) and incubated in duplicate at 37 °C for up to 5 h. After incubation, the plasma proteins were precipitated using a mixture of CH3CN/EtOH (1:1 v/v, 400 μL). The supernatant layer was collected by centrifugation (5000 rpm for 5 min), filtered through a 0.2-µm Millex GP filter, and analyzed by radio-HPLC to assess the product stability.

The test system of another data set is Balb/c mice. The data set is described as follows: In vivo biodistribution in normal Balb/c mice. The following applies: Balb/c mice. The arrangement: species or system mouse. Here is the method:
The in vivo biodistribution of ^68Ga-labeled AngII peptide analog was carried out in female Balb/c mice, at various time points, to observe the uptake in the normal tissues and organs and find the excretion route of the radiolabeled peptides. […] Low uptake and retention of the radiopeptide in the liver varying from 1.54 ± 0.28% ID/g at 45 min to 0.48 ± 0.17% ID/g at 2 h p.i. is probably related to the high hydrophilicity (log p = −0.55 ± 0.11) of the ^68Ga-labeled AngII peptide analog. […] The efficient clearance from the kidneys is possibly associated with the urinary excretion of the radiopeptide. […] The low amount of uptake in the bone (up to 0.37 ± 0.14% ID/g) (Table 2) indicates the minimal breakdown of the ^68Ga-labeled AngII peptide complex in vivo combined with the minor release of free ^68Ga. These findings are in agreement with the high in vitro metabolic stability observed in the human plasma for the radiolabeled AngII peptide. The accumulation in the extremely vascular organ lungs was also low (up to 1.11 ± 0.37% ID/g) signifying a low trapping by the lungs.
Approval from the Institutional Animal Care and Use Committee was obtained for the animal protocol used. Additionally, strict international regulations govern the safe and proper use of laboratory animals employed during animal experiments. In vivo, biodistribution was performed on healthy female mice according to the methods essentially described previously. In summary, Balb/c mice (n = 5 per time point, body mass 20–25 g) at 45 min and 2 h were administered with the HPLC-purified AngII peptide (~1 µg, 100 µL, 0.925–1.85 MBq; 25–50 µCi) via lateral tail vein injection. At the specified time points, the animals were sacrificed by cervical dislocation. A fraction of the blood was collected from cardiac puncture. Urine was also collected and measured with the bladder contents. Major organs, such as the lungs, pancreas, stomach, liver, heart, kidneys, and intestines were isolated, weighed, and measured for radioactivity. The uptake values of the radiolabeled peptide in different organs are expressed as the percent injected dose per gram (% ID/g) of tissue/organ. The radioactivity in the urine with bladder contents is shown as the percent of the injected dose per organ (% ID/organ). To calculate the injected dose, a standard (20-fold dilution of injected dose) was prepared and counted together with animal tissue samples.

The test system of data set [2] is human breast cancer cells. The note with it: cited from earlier work. Here is the method: The values were 27.73 ± 5.97 nM for MDA-MB-231 and 35.14 ± 7.09 nM for the MCF7 breast cancer cell line. Thes ...

We go through 2 compounds from article PMC10675340, “Preparation, Radiolabeling with ^68Ga/^177Lu and Preclinical Evaluation of Novel Angiotensin Peptide Analog: A New Class of Peptides for Breast Cancer Targeting” (Pharmaceuticals, 2023).

Where a SMILES comes first, the peptide text is derived from it. Where no end group is shown, it is not given here. [ ]: non-standard residue; d: D form. The star is where a group is joined. DOTA = O=C(O)CN1CCN(CC(=O)O)CCN(CC(=O)*)CCN(CC(=O)O)CC1; βAla = NCCC(=O)O

Turning to `CC[C@H](C)[C@H](NC(=O)[C@H](Cc1ccc(O)cc1)NC(=O)[C@@H](NC(=O)[C@H](CCCNC(=N)N)NC(=O)[C@H](CC(=O)O)NC(=O)CCNC(=O)[C@H](CCCCN)NC(=O)CN1CCN(CC(=O)O)CCN(CC(=O)O)CCN(CC(=O)O)CC1)C(C)C)C(=O)N[C@@H](Cc1c[nH]cn1)C(=O)N1CCC[C@H]1C(=O)N[C@@H](Cc1ccccc1)C(=O)N[C@@H](Cc1c[nH]c2ccccc12)C(=O)N[C@@H](CCCCN)C(=O)N[C@@H](Cc1ccc(O)cc1)C(N)=O` [^177Lu-DOTA-AngII peptide, metal not drawn] ({DOTA}-K[βAla]DRVYIHPFWKY-NH2), the remaining at 5 h in data set [1] (human plasma 400 μL + 50 μL radiopeptide, duplicate, CH3CN/EtOH precipitation, read-out: Radioactivity still associated with the radiolabeled peptide) is greater than 90%. In addition, the “Release of free ^177Lu” value in data set [1] (human plasma, 5 h) was “up to 10%”. Further, the “Biological and excretion pattern compared with the ^68Ga-labeled counterpart” value in the data set on Balb/c mice is “more or less the same biological and excretion pattern”.

As to “^125I-angiotensin II: radioiodinated angiotensin II from the literature, ref 13 (DRVYIHPF; also: radioiodinated (125I label), site not given here; UniProt P01019 25-32, looked up)”, the Kd (in general, the equilibrium constant for the complex coming apart) in data set [2] is roughly 60 nM.
